Data set [1] deals with PI3Kβ (Homo sapiens, UniProt P42338). Briefly: ADP-Glo luminescent assay, enzymatic activity of PI3K beta. The format is biochemical. Particulars: ATP 25 μM; read-out: PI3K beta (nM) inhibitory activity (IC50). The protocol:
(§1) Enzymatic activity of PI3K isoforms: Enzymatic activity of the class I PI3K isoforms in the presence of the compounds of Table 1 was measured using ADP-Glo luminescent assay against PI3Kα, PI3Kβ, PI3Kδ and PI3Kγ with ATP concentration at 25 μM. IPI-549 was used as the reference compound. The compounds would be tested from 1 or 10 μM, 3-fold dilution for 10 doses, in duplicate.
(§2) Compound preparation: Dilute a compound to 100× of the final desired highest inhibitor concentration in reaction by 100% DMSO. Transfer 100 μl of this compound dilution to a well in a 96-well plate and serially dilute it with DMSO for a total of 10 concentrations.
(§3) Kinase reaction: Prepare a solution of PI3K in 1× kinase buffer at 2-fold the final concentration of each reagent in the assay. Control wells contain 1× kinase buffer without enzyme. Prepare substrate solution of PIP2 substrate and ATP in 1× kinase reaction buffer at 2-fold of the final concentration. Add concentration substrate solution to each well to the final concentration. Cover the assay plate, shake to mix, and incubate at room temperature for 1 hour. Add 5 μl of ADP-Glo reagent to each well to stop the reaction. Mix briefly with a quick spin, shake slowly on the shaker for 120 min. Add 10 ul Kinase Detection Reagent to each well, shake 1 min, equilibrate for 30 min before reading on a luminescence plate reader.
(§4) Data Analysis: Convert RLU values to percent inhibition values as Percent inhibition=(max−sample RLU)/(max−min)*100. “min”—no enzyme control; “max”—DMSO control. Fit the data in XLFit excel add-in version 5.4.0.8 to obtain IC50 values. Y=Bottom+(Top−Bottom)/(1+(IC50/X)^HillSlope).

Data set [2] can be described thus: Kinetic solubility test in PBS pH7.4. Format: physicochemical. The following applies: for solubility at 2 h: aqueous buffer, kinetic from dmso stock, PBS pH 7.4, 25° C.
Data set [3] concerns the target PI3Kδ (Homo sapiens, UniProt O00329). The data set can be described thus: ADP-Glo luminescent assay, enzymatic activity of PI3K delta. The format is biochemical. Particulars: ATP 25 μM; read-out: PI3K delta (nM) inhibitory activity (IC50). (ADP-Glo turns the ADP formed in a reaction into a luminescent signal.)
Data set [4] deals with PI3Kα (Homo sapiens, UniProt P42336). The data set can be described thus: ADP-Glo luminescent assay, enzymatic activity of PI3K alpha. Format: biochemical. Particulars: ATP 25 μM; read-out: PI3K alpha (nM) inhibitory activity (IC50). As to the method:
as §1, §2, §3, §4

Data set [5] has as its target T1, PI3K delta (Homo sapiens, UniProt O00329).
T1 construct: endogenous in cells; host or cells: Raji
Briefly: Raji cell assay: phosphorylation of AKT in anti-IgM stimulated Raji cells (AlphaLISA). The format is cell-based. The following applies: pAKT, read-out: PI3K delta Raji cell (nM) cellular activity (IC50). The protocol:
This study aims to determine the inhibitory effect of compounds on PI3K gamma and PI3K delta in corresponding cell based assays. PI3K gamma activity was reflected by phosphorylation of AKT in C5a stimulated RAW264.7 cells, and PI3K delta activity was reflected by phosphorylation of AKT in anti-IgM stimulated Raji cells. Phosphorylation of AKT in cells was determined using AlphaLISA technology from PerkinElmer.
Raji cell assay: Prepare Passage 11 Raji cell and add 6 μL of 60K cells per well in 384-well plate. Centrifuge at 500 RPM for 30 s and incubate for 2 hours at 37° C., 5% CO2. Add 30 nL compound by Echo and incubate for 30 min at 37° C. Add 2 μL of IgM (4×, 12 μg/mL) per well, centrifuge at 500 RPM for 30 s and incubate for 10 min at 37° C. Add 2 μL of 5× lysis buffer by Multidrop. Shake 10 min on a plate shaker. Add 5 μL acceptor mix provided in the kit. Centrifuge at 1000 RPM for 1 min. Add 5 μL donor mix provided in the kit. Centrifuge at 1000 RPM for 1 min. Then incubate for 2 hours at 25° C., keep the plate in dark. Read AlphaLISA signal on Envision.
Data analysis: Fit the cpd IC50 from non-linear regression equation. Y=Bottom+(Top−Bottom)/(1+10^((Log IC50−X)*Hill Slope)) X: Log of cpd concentration Y: Inhibition
In general terms: In Alpha technology, singlet oxygen from a donor bead excites a nearby acceptor bead.

The structures appear in SMILES notation. In brackets after ≈: the same amount, converted by molar mass.

Broadly, the solubility is the concentration that dissolves in the medium under given conditions.

Chain of PI3Kα (P42336 whole entry, species assumed): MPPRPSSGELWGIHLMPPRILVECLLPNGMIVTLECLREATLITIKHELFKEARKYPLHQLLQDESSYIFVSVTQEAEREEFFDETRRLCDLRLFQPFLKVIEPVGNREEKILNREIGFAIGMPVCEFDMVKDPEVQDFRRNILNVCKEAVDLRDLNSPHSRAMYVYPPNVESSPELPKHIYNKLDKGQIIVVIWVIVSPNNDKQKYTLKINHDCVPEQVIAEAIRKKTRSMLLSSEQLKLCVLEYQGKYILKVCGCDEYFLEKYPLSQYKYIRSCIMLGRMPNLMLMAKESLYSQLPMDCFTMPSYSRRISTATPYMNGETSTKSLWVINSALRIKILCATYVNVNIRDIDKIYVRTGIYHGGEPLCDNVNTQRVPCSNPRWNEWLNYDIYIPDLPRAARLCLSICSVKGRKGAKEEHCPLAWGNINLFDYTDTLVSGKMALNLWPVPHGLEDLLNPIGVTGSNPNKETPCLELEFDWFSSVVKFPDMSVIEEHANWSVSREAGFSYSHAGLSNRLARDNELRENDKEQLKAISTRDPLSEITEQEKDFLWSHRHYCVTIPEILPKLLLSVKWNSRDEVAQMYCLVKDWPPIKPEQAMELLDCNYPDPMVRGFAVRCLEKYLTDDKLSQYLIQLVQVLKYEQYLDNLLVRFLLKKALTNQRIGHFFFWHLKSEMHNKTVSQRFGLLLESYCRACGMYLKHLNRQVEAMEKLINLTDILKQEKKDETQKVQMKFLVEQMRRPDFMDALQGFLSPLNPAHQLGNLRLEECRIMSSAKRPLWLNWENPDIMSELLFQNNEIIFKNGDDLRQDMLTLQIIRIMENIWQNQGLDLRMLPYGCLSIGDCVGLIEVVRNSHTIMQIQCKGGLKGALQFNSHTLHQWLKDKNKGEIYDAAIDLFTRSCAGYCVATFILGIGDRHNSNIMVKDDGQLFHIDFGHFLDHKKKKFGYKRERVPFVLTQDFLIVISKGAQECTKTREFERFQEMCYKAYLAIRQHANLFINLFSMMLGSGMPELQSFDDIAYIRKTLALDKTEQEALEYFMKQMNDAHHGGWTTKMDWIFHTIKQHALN
Chain of PI3Kα (P27986 whole entry partner, species assumed): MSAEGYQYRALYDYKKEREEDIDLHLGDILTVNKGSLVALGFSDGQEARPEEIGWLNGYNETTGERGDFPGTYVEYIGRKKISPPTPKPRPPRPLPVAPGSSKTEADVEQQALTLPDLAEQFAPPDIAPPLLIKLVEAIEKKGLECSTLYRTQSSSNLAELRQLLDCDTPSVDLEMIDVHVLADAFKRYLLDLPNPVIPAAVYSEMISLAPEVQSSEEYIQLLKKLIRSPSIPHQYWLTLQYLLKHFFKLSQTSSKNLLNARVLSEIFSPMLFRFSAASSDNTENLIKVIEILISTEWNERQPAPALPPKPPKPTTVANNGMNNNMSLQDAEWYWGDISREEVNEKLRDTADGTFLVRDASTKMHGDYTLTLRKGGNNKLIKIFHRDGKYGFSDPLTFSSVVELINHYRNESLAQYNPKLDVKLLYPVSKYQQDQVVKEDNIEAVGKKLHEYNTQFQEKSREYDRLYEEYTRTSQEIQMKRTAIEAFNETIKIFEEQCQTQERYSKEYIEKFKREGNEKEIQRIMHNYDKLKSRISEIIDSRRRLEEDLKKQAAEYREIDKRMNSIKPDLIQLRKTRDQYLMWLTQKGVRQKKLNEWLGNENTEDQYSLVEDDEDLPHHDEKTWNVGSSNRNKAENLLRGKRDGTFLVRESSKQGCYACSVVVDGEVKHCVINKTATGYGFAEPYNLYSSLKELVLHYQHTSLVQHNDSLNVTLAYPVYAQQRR
Chain of PI3Kβ (P42338 whole entry, species assumed, canonical isoform): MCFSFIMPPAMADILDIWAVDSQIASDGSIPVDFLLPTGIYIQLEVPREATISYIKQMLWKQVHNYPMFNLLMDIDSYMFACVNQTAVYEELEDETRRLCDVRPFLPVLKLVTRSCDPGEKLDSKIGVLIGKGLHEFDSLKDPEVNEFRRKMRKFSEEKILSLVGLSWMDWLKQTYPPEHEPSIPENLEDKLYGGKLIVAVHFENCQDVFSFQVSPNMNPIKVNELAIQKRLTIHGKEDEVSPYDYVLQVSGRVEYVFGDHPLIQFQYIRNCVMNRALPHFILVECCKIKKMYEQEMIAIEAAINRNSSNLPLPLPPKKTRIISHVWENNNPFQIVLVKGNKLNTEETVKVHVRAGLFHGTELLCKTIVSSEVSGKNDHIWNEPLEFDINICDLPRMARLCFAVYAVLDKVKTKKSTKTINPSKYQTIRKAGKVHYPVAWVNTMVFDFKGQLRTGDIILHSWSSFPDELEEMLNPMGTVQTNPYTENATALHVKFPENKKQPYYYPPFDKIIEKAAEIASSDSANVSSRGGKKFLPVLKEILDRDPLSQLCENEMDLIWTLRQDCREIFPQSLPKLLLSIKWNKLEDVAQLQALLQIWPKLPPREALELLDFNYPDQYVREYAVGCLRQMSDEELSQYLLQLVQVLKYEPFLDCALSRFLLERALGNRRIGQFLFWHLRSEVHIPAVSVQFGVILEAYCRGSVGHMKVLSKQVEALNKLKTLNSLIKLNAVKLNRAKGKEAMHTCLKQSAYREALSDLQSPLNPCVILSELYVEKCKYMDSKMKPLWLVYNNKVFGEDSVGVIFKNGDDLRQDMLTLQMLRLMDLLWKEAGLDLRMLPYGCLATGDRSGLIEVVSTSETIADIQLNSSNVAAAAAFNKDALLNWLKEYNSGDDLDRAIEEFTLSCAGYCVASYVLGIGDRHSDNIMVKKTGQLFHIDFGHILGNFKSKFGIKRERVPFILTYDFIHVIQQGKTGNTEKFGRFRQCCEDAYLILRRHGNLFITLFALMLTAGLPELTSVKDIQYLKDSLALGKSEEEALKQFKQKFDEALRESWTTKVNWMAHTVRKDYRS
Chain of PI3Kβ (P27986 whole entry partner, species assumed, canonical isoform): as the sequence (P27986 whole entry partner, species assumed) above
T1 sequence (O00329 whole entry): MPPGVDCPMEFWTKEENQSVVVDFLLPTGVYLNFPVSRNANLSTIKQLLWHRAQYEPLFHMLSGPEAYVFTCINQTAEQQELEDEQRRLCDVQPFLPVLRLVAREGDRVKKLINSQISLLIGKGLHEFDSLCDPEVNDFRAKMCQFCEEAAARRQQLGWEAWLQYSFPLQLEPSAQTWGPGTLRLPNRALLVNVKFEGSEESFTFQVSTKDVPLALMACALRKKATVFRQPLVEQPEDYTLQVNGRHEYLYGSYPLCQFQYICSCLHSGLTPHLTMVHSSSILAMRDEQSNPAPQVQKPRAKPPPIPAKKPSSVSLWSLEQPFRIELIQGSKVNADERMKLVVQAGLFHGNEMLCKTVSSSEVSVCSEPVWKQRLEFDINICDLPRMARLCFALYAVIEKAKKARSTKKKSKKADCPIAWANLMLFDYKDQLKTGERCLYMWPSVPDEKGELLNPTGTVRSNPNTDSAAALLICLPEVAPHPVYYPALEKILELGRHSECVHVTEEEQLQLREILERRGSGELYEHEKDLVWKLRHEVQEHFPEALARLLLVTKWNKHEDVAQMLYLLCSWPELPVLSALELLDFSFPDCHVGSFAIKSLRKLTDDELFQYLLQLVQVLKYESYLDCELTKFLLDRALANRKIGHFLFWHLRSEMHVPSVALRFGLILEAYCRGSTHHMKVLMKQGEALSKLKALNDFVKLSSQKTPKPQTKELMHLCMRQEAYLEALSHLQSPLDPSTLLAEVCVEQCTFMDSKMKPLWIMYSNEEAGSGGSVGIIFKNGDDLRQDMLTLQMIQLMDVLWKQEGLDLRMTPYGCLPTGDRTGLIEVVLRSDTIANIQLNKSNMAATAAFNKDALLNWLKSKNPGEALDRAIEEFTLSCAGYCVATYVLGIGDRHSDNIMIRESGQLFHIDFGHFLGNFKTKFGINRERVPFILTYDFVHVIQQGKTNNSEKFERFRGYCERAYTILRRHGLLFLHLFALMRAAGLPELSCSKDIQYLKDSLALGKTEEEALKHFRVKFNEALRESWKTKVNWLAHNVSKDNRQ
T1 sequence (P27986 whole entry partner): as the sequence (P27986 whole entry partner, species assumed) above
Chain of PI3Kδ (O00329 whole entry, species assumed): as the sequence (O00329 whole entry) above
Chain of PI3Kδ (P27986 whole entry partner, species assumed): as the sequence (P27986 whole entry partner, species assumed) above

Turning to `CC(=O)Nc1nc(C)c(-c2cc3c(c(NS(C)(=O)=O)n2)C(=O)N([C@@H](C)C2CC2)C3)s1` [Compound 20, (S)-N-(5-(2-(1-cyclopropylethyl)-4-(methylsulfonamido)-3-oxo-2,3-dihydro-1H-pyrrolo[3,4-c]pyridin-6-yl)-4-methylthiazol-2-yl)acetamide], the IC50 is more than 10000 nM in data set [1], 1170 nM in data set [3], 3890 nM in data set [4] and 2160 nM in data set [5]. Also, the concentration in solution in data set [2] (solubility at 2 h) came to 240 µM (≈ 108 µg/mL). The “fold improvement over AZ-17 in kinetic solubility test” value in data set [2] (physiologic pH) is given as more than 200 fold.

Take `CC(=O)Nc1nc(C)c(-c2cc3c(c(N4CCOCC4)n2)C(=O)N([C@@H](C)C2CC2)C3)s1` [Compound 34, (S)-N-(5-(2-(1-cyclopropylethyl)-4-morpholino-3-oxo-2,3-dihydro-M-pyrrolo[3,4-c]pyridin-6-yl)-4-methylthiazol-2-yl)acetamide]: the IC50 in data set [1] was more than 10000 nM; in data set [3] it was more than 1000 nM; in data set [4] it was 3330 nM; in data set [5], 1960 nM. The solubility at 2 h in data set [2] turned out to be 9.6 µM (≈ 4.24 µg/mL).

(Values after US11542262B2, “Phosphatidylinositol 3-kinase inhibitors” (NANJING ZHENGXIANG PHARMACEUTICALS CO., LTD., priority 2019, dated 2023).)
